Where two headings read alike, the source gives them in different places.
How the values were obtained:
[1] = molecular target: HDAC3 (Homo sapiens, UniProt O15379); experiment: HDAC biochemical activity measurement (fluorescent substrate deacetylation);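 note: fluorogenic acetyl-lysine substrate (20 µM) deacetylated by HDAC3, then developer added for 15 min at room temperature, release of fluorophore read at excitation 360 nm, emission 460 nm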; details: read-out: IC50 HDAC3; HDAC3; 37° C. 30 minutes
Chain of HDAC3 (O15379 whole entry, species assumed): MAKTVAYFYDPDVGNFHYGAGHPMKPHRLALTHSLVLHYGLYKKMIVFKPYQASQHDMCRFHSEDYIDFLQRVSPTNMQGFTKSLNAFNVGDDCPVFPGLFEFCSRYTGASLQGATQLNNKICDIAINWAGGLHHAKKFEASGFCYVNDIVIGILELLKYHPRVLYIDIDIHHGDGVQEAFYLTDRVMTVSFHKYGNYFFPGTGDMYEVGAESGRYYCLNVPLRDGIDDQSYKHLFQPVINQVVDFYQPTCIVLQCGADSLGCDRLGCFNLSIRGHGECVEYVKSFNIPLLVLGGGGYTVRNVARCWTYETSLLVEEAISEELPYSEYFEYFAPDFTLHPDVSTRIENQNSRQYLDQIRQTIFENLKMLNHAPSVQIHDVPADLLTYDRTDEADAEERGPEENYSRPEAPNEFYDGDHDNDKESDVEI
Chain of HDAC3 (Q9Y618 395-489 partner limits assumed, species assumed): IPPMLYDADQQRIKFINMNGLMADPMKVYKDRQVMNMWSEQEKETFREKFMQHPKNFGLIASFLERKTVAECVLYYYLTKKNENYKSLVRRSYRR

[2] = system: PANC-1 (Pac-1, human pancreatic cancer cells); experiment: MTT cancer cell growth inhibition; type: cell-based; details: MTT
Method in brief: (§1)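 Cells seeded at 1500/well in DMEM or RPMI 1640 with 10% FBS, incubated overnight, then exposed to compound at 10^−5 to 10^−10 M final in triplicate for 72 h at 37° C, 5% CO2. MTT added for 4 h, formazan dissolved in DMSO, absorbance read at 570 nm; GI50 derived from viability.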

[3] = system: DU145 (human prostate cancer cells); experiment: MTT cancer cell growth inhibition; type: cell-based; details: MTT
Method in brief: as §1

[4] = system: HCC827 (human non-small cell lung cancer cells); experiment: MTT cancer cell growth inhibition; type: cell-based; details: MTT, 72 hours incubation, HCC827 cells, read-out: GI50 HCC827
Method in brief: as §1

[5] = system: Hela (human cervical cancer cells); experiment: MTT cancer cell growth inhibition; type: cell-based; details: MTT
Method in brief: as §1

[6] = system: N-87 (human gastric cancer cells); experiment: MTT cancer cell growth inhibition; type: cell-based; details: MTT, 72 hours incubation, N-87 cells, read-out: GI50 N-87
Method in brief: as §1

[7] = system: SGC-7901 (human gastric cancer cells); experiment: MTT cancer cell growth inhibition; type: cell-based; details: MTT, 72 hours incubation, SGC-7901 cells, read-out: GI50 SGC-7901
Method in brief: as §1

[8] = system: MCF-7 (human breast cancer cells); experiment: MTT cancer cell growth inhibition; type: cell-based
Method in brief: as §1

[9] = system: K562 (human leukemia cells); experiment: MTT cancer cell growth inhibition; type: cell-based; details: MTT, 72 hours incubation, K562 cells, read-out: GI50 K562
Method in brief: as §1

[10] = system: H1975 (non-small cell lung adenocarcinoma); experiment: MTT cancer cell growth inhibition; type: cell-based; details: MTT, 72 hours incubation, H1975 cells, read-out: GI50 H1975
Method in brief: as §1

[11] = system: Huh-7 (human hepatoma cells); experiment: MTT cancer cell growth inhibition; type: cell-based; details: MTT, 72 hours incubation, Huh-7 cells, read-out: GI50 Huh-7
Method in brief: as §1

[12] = system: HT1080 (human fibrosarcoma cells); experiment: MTT cancer cell growth inhibition; type: cell-based; details: MTT
Method in brief: as §1

[13] = system: BGC-823 (human gastric cancer cells); experiment: MTT cancer cell growth inhibition; type: cell-based; details: MTT
Method in brief: as §1

[14] = system: KBM5-T315I (human chronic myelogenous leukemia); experiment: MTT cancer cell growth inhibition; type: cell-based; details: MTT, 72 hours incubation, KBM5-T315I cells, read-out: GI50 KBM5-T315I
Method in brief: as §1

[15] = system: U937 (human leukemia cells); experiment: MTT cancer cell growth inhibition; type: cell-based; details: MTT
Method in brief: as §1

[16] = system: MOLT-4 (human acute lymphoblastic leukemia cells); experiment: MTT cancer cell growth inhibition; type: cell-based; details: MTT
Method in brief: as §1

[17] = system: MDA-MB-231 (breast cancer cells); experiment: MTT cancer cell growth inhibition; type: cell-based
Method in brief: as §1

[18] = system: A549 (human lung cancer cells); experiment: MTT cancer cell growth inhibition; type: cell-based; details: MTT
Method in brief: as §1

[19] = system: Bel-7402 (human hepatoma cells); experiment: MTT cancer cell growth inhibition; type: cell-based; details: MTT, 72 hours incubation, Bel-7402 cells, read-out: GI50 Bel-7402
Method in brief: as §1

[20] = system: lncap (prostate cancer cells); experiment: MTT cancer cell growth inhibition; type: cell-based; details: MTT
Method in brief: as §1

[21] = system: KBM-5 (human chronic myelogenous leukemia); experiment: MTT cancer cell growth inhibition; type: cell-based; details: MTT, 72 hours incubation, KBM-5 cells, read-out: GI50 KBM-5
Method in brief: as §1

[22] = molecular target: HDAC1 (Homo sapiens, UniProt Q13547); experiment: HDAC biochemical activity measurement (fluorescent substrate deacetylation);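 note: fluorogenic acetyl-lysine substrate (20 µM) deacetylated by HDAC1, then developer releases fluorophore read at 360 nm excitation and 460 nm emission, inhibitor incubated 30 min at 37 °C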
Chain of HDAC1 (Q13547 whole entry, species assumed): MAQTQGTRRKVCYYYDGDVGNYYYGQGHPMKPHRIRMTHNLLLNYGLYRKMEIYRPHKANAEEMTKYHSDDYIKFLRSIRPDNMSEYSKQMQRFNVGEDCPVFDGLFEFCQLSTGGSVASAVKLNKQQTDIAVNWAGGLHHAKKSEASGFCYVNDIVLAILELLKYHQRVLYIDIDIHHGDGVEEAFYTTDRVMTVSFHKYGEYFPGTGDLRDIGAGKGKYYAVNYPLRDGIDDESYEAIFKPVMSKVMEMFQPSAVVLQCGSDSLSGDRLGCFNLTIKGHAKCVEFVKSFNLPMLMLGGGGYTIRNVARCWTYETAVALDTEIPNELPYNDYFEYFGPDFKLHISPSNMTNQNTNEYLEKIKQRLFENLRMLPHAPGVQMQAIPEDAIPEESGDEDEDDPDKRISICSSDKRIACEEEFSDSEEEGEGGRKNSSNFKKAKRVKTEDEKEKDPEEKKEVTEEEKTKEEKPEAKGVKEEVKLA
Method: The chemical activity of the compound is determined according to the degree of deacetylation inhibition of the HDAC enzyme. This experiment measured the degree of deacetylation related to tumor proliferation and metastasis of HDAC1, HDAC2, HDAC3, HDAC8, HDAC11 five subtypes HDAC enzymes. After the substrate containing an acetylated lysine side chain and HDAC enzyme are labeled with a fluorescent label, the fluorescent substrate is de acetyl. The fluorescent labeled substrate is cleaved by the enzyme, and the fluorescent substance is released, which generates 460 nm emission light under the excitation of 360 nm light.
HDAC substrate was diluted with reaction buffer to 200M (reaction concentration of 20M), the HDAC enzyme was diluted to the appropriate concentration, then added different concentrations of the test compounds and acted at 37° C. 30 minutes, and then added the same volume of 2-times concentration substrate developing solution (developer), incubated at room temperature for 15 minutes.

[23] = molecular target: HDAC2 (Homo sapiens, UniProt Q92769); experiment: as above; details: 37° C. 30 minutes;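 note: HDAC2 enzyme with an acetyl-lysine fluorescent substrate, then developer added, fluorescence read at excitation 360 nm and emission 460 nm, inhibition measured across several compound concentrations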
Chain of HDAC2 (Q92769 whole entry, species assumed): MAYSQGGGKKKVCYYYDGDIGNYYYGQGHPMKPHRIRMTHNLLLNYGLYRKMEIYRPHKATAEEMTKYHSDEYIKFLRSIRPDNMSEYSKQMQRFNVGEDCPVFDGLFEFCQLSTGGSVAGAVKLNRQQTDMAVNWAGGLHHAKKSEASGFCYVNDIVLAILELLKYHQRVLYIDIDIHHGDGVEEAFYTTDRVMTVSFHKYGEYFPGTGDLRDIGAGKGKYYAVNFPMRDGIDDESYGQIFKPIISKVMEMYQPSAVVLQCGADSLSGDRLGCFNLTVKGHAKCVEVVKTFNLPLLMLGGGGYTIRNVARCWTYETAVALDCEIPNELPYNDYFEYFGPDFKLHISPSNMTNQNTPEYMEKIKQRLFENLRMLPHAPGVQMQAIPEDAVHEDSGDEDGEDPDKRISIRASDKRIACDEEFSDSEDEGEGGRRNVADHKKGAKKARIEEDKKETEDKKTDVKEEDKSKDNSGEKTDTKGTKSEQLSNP

[24] = Homo sapiens, DU-145, 72 h, 72 hours incubation, read-out: GI50 Du1
[25] = Homo sapiens, HeLa, 72 h, 72 hours incubation, read-out: GI50 Hela
[26] = Homo sapiens, MCF7, 72 h, 72 hours incubation, read-out: GI50 MCF
[27] = Homo sapiens, HT-1080, 72 h, 72 hours incubation, read-out: GI50 HT1
[28] = Homo sapiens, BGC-823, 72 h, 72 hours incubation, read-out: GI50 BG
[29] = Homo sapiens, MOLT-4, 72 h, 72 hours incubation, read-out: GI50 Mol
[30] = Homo sapiens, MDA-MB-231, 72 h, read-out: GI50 MDA-MB-231, MTT, 72 hours incubation, MDA-MB-231 cells
[31] = Homo sapiens, A549, 72 h, 72 hours incubation, read-out: GI50 A54
[32] = HDAC1, 37° C. 30 minutes, read-out: IC50 HDAC1

IC50 [1] | GI50 [3, 24] | GI50 ([4]; Homo sapiens, HCC827, 72 h) | GI50 [5, 25] | GI50 ([6]; Homo sapiens, 72 h) | GI50 ([7]; Homo sapiens, SGC-7901, 72 h) | GI50 [8, 26] | GI50 ([9]; Homo sapiens, K562, 72 h) | GI50 ([10]; Homo sapiens, NCI-H1975, 72 h) | GI50 ([11]; Homo sapiens, Huh-7, 72 h) | GI50 [12, 27] | GI50 [13, 28] | GI50 ([14]; Homo sapiens, 72 h) | GI50 [16, 29] | GI50 [17, 30] | GI50 [18, 31] | GI50 ([19]; Homo sapiens, Bel-7402, 72 h) | GI50 ([21]; Homo sapiens, KBM5, 72 h) | IC50 [22, 32] | IC50 [23] | SMILES | further results
36 nM | 10 nM | 83 nM | 80 nM | 61 nM | 52 nM | 50 nM | 16 nM | 26 nM | 31 nM | 80 nM | 60 nM | 51 nM | 30 nM | 31 nM | 50 nM | 83 nM | 83 nM | 23 nM | 43 nM | C/C=C1\NC(=O)c2nc(ccc2F)CNC(=O)C[C@@H](/C=C/CCSC(=O)CCCCCC)OC(=O)[C@H](C(C)C)NC1=O [Compound 33] | GI50 ([2]; Homo sapiens, PANC-1, 72 h, 72 hours incubation, read-out: GI50 PAN): 80 nM; GI50 ([15]; Homo sapiens, U-937, 72 h, 72 hours incubation, read-out: GI50 U93): 20 nM; GI50 ([20]; Homo sapiens, LNCaP, 72 h, 72 hours incubation, read-out: GI50 lnca): 30 nM; IC50 ([22]; Table 3, column C, read-out: IC50 HDAC1, C (six-membered ring with substituents)): 23 nM
62 nM |  |  |  |  |  |  |  |  |  |  |  |  |  |  |  |  |  | 61 nM | 19 nM | C/C=C1\NC(=O)c2nc(F)cc(n2)CNC(=O)C[C@@H](/C=C/CCSC(C)=O)OC(=O)[C@H](C(C)C)NC1=O [Compound 98] | GI50 ([2]; 72 hours incubation, read-out: GI50 PAN): 80 nM; GI50 ([3]; 72 hours incubation, read-out: GI50 Du1): 40 nM; GI50 [4]: 35 nM; GI50 ([5]; 72 hours incubation, read-out: GI50 Hela): 50 nM; GI50 [6]: 21 nM; GI50 [7]: 36 nM; GI50 ([8]; 72 hours incubation, read-out: GI50 MCF): 30 nM; GI50 [9]: 37 nM; GI50 [10]: 81 nM; GI50 [11]: 28 nM; GI50 ([12]; 72 hours incubation, read-out: GI50 HT1): 80 nM; GI50 ([13]; 72 hours incubation, read-out: GI50 BG): 50 nM; GI50 [14]: 58 nM; GI50 ([15]; 72 hours incubation, read-out: GI50 U93): 30 nM; GI50 ([16]; 72 hours incubation, read-out: GI50 Mol): 20 nM; GI50 ([17]; read-out: GI50 MDA-MB-231, MTT, 72 hours incubation, MDA-MB-231 cells): 37 nM; GI50 ([18]; 72 hours incubation, read-out: GI50 A54): 600 nM; GI50 [19]: 43 nM; GI50 ([20]; 72 hours incubation, read-out: GI50 lnca): 20 nM; GI50 [21]: 29 nM
7 nM | 10 nM | 54 nM | 40 nM | 29 nM | 35 nM | 30 nM | 41 nM | 34 nM | 46 nM | 20 nM | 30 nM | 52 nM | 20 nM | 91 nM | 50 nM | 82 nM | 49 nM | 87 nM | 17 nM | C/C=C1\NC(=O)c2cccc(n2)CNC(=O)C[C@@H](/C=C/CCSC(C)=O)OC(=O)[C@H](C(C)C)NC1=O [Compound 7] | GI50 ([2]; Homo sapiens, PANC-1, 72 h, 72 hours, present invention, read-out: GI50 PANC-1, a): 5 nM; GI50 ([3]; Homo sapiens, DU-145, 72 h, 72 hours, present invention, read-out: GI50 Du145, a): 13 nM; GI50 ([5]; Homo sapiens, HeLa, 72 h, 72 hours, present invention, read-out: GI50 Hela, a): 40 nM; GI50 ([8]; Homo sapiens, MCF7, 72 h, 72 hours, present invention, read-out: GI50 MCF7, a): 30 nM; GI50 ([12]; Homo sapiens, HT-1080, 72 h, 72 hours, present invention, read-out: GI50 HT1080, a): 27 nM; GI50 ([13]; Homo sapiens, BGC-823, 72 h, 72 hours, present invention, read-out: GI50 BGC823, a): 31 nM; GI50 ([15]; Homo sapiens, U-937, 72 h, 72 hours, present invention, read-out: GI50 U937, a): 8 nM; GI50 ([16]; Homo sapiens, MOLT-4, 72 h, 72 hours, present invention, read-out: GI50 Molt-4, a): 21 nM; GI50 ([18]; Homo sapiens, A549, 72 h, 72 hours, present invention, read-out: GI50 A549, a): 52 nM; GI50 ([20]; Homo sapiens, LNCaP, 72 h, 72 hours, present invention, read-out: GI50 lncap, a): 3 nM; IC50 ([22]; Table 2, read-out: IC50 HDAC1, a (compounds of the present invention)): < 500 nM; IC50 ([22]; Table 3, read-out: IC50 HDAC1, D (non-substituent)): 87 nM
